Experimental data from patent US6596762B2, “Antioxidant compositions and use for treatment of hepatic steatosis and steatohepatitis” (The Regents of The University of Colorado, priority 2001, dated 2003).

Assays:
[1] = test system: fat-laden hepatocytes from obese Zucker (fa/fa) rats; assay: Cell necrosis (%LDH release) of isolated hepatocytes exposed to GCDC; assay type: cell-based, rat; settings: fat-laden cells, 100 μM GCDC × 3 hours
Method: (§1) Briefly, 8-week-old obese Zucker (fa/fa) rats (Zucker rat model of hepatic steatosis) and lean (Fa/?) litter-mates were sacrificed. Liver blood tests and liver histology were obtained, and hepatocytes isolated by the recirculating collagenase perfusion technique. Initial trypan blue exclusion exceeded 94%. Cells were incubated in suspension with glycochenodeoxycholic acid (GCDC) (0,-1000 μM) in Krebs-Ringer-HEPES for 4 hours. Aliquots of cells were removed hourly for determination of: (1) hydroperoxide generation measured by fluorescence of dichlorofluororescin diacetate (DCF-DA) that was preloaded into hepatocytes; (2) %LDH release as a measure of cell necrosis; and (3) DAPI fluorescence microscopy of fixed cells to quantify apoptosis. Liver histology was quantitated using a grading system.

[2] = test system: lean hepatocytes from lean (Fa/?) Zucker litter-mates; assay: as above; assay type: cell-based, rat; settings: lean cells, 100 μM GCDC × 3 hours
Method: as §1

[3] = test system: fat-laden hepatocytes from obese Zucker (fa/fa) rats; assay: Apoptosis by DAPI fluorescence microscopy of isolated hepatocytes exposed to GCDC; assay type: cell-based, rat; settings: fat-laden cells, 100 μM GCDC × 3 hours
Method: as §1

[4] = test system: lean hepatocytes from lean (Fa/?) Zucker litter-mates; assay: as above; assay type: cell-based, rat; settings: lean cells, 100 μM GCDC × 3 hours
Method: as §1

[5] = test system: fat-laden hepatocytes from obese Zucker (fa/fa) rats; assay: Hydroperoxide generation (DCF-DA fluorescence) in isolated hepatocytes exposed to GCDC; assay type: cell-based, rat; settings: fat-laden cells exposed to GCDC, compared with lean cells
Method: as §1

children with NASH = settings: oral vitamin E 400 to 1200 IU per day, during therapy; cited from earlier work
fat-laden hepatocytes = assay: Protection of fat-laden liver cells exposed to bile acids; assay type: cell-based, rat; settings: fat-laden liver cells exposed to relatively low concentrations of bile acids
Source text: The antioxidants in this mixture were chosen for the following scientific reasons. […] Briefly, fat-laden hepatocytes were isolated from the Zucker rat model of hepatic steatosis and from lean littermate Zucker rats. […] Without being bound by theory, the present inventor believes that the fatty liver is more prone to hepatocyte necrosis and thus is at risk for severe injury from minor and major insults. […] Studies from the present inventor's laboratory have shown that the effect of vitamin E is probably mediated through reduction of free radical production from mitochondria (Yerushalmi et al., Hepatology 2001; 33:616-26, incorporated herein by reference in its entirety).

[6] = test system: isolated rat liver mitochondria; assay: Protection of isolated liver mitochondria against toxic bile acids
Source text: (§2) Beta carotene and other carotenoids also function as antioxidants in tissues with low oxygen content (such as the liver) and the present inventor has shown beta carotene to have a protective role in hepatic mitochondria that prevents processes that generate oxygen free radicals (unpublished data). […] (Sokol et al., Hepatology 2001;34(2):277A, incorporated herein by reference in its entirety).

[7] = test system: isolated human liver mitochondria; assay: as above
Source text: as §2

Compound: CC(CCC(=O)NCC(=O)O)C1CCC2C3C(O)CC4CC(O)CCC4(C)C3CCC12C (centres unmarked) [GCDC, glycochenodeoxycholic acid]
- necrosis (%LDH release) [1]: 54%
- necrosis (%LDH release) [2]: 24%
- apoptosis [3]: 8%
- apoptosis [4]: 31%
- generation of hydroperoxides [5]: trend was present towards increased generation of hydroperoxides

Compound: Cc1c(C)c2c(c(C)c1O)CC[C@@](C)(CCC[C@H](C)CCC[C@H](C)CCCC(C)C)O2 [alpha tocopherol]
- serum AST and ALT (children with NASH): reduced
- oxidative stress and hepatocyte cell death (fat-laden hepatocytes): will prevent oxidative stress and hepatocyte cell death

Compound: CC1=C(/C=C/C(C)=C/C=C/C(C)=C/C=C/C=C(C)/C=C/C=C(C)/C=C/C2=C(C)CCCC2(C)C)C(C)(C)CCC1 [beta carotene]
- mitochondrial swelling and injury induced by toxic bile acids [6]: protects the mitochondria from swelling and injury
- production of free radicals ([6]; toxic bile acids): markedly diminishes the production of free radicals
- mitochondrial swelling and injury induced by toxic bile acids [7]: protects the mitochondria from swelling and injury
- production of free radicals ([7]; toxic bile acids): markedly diminishes the production of free radicals
